Measurements as given in patent US6593275B1, “Use of prolines for improving growth and other properties of plants and algae” (The Regents of the University of California, priority 2000, dated 2003).
Several values for one entry are separate records, joined by “and”; a condition that tells them apart may be missing. Equal values may be shown once. Marks after values point to notes of the source that are not given here.

Legend:
oat plants [1] = experiment: Foliar treatment of oats with 5-oxoproline; assay type: in vivo; details: oats harvested 17 days after single foliar treatment, 40.5 mg per milliliter, 1% dimethylsulfoxide, pH 6.3
Experimental: A solution containing 40.5 mg per milliliter of 2-pyrrolidone-5-carboxylic acid and 1% dimethylsulfoxide in water at a pH of 6.3 was applied, but other solutions of this compound were also found to be effective. These plants were grown under lights of 980 microeinsteins per meter squared per second and the treatment was applied to their foliar parts.

[2] = test system: wildtype oats (commercial cultivar Lodi); experiment: Daily root treatment of oats; selection of responders by CO2 fixation rate and tillers; assay type: in vivo
Experimental: Oats were treated with 2-hydroxy-5-oxoproline through their roots as described in EXAMPLE 1. Individual plants that responded to the increased level of 2-hydroxy-5-oxoproline were identified by measuring the rate of CO2 fixation using a CO2 fixation meter at the maximum light intensity for photosynthetic carbon dioxide fixation of 2000 microeinsteins per meter squared per second. The rates were measured in the leaves of treated plants on two successive days and the plants were allowed to mature and produce seed.

Cotton-Pima = experiment: Single foliar treatment of cotton seedlings; assay type: in vivo; details: 16 days old, harvested 9 day after a single treatment, untreated 1.27
Experimental: (§1) TABLE 7 and TABLE 8 show the results when commercial vegetables such as cantaloupe, and tomatoes, and a crop such as cotton were tested for the effects of the metabolite on their growth rates. These plants received one foliar application of 2-hydroxy-5-oxoproline as young seedlings. These plants grew more rapidly as determined by either fresh weight or leaf length. The cantaloupe and cotton seedlings were harvested and their fresh weight was determined.
(§2) *Plants were 16 days old and were harvested 9 day after the treated plants had received a single treatment.

[3] = test system: Switchgrass (commercial cultivar Alamo); experiment: Daily root treatment of switchgrass; assay type: in vivo
Experimental: (§3) Also in the EXAMPLES, plants were grown at 73° F. with 16 h length days and 8 h length nights. Fluorescent lights were supplemented with incandescent bulbs to generate intensities of 1760, 980 or 360 microeinsteins per meter squared per second as indicated in the EXAMPLES. Plants were grown in a standard potting mixture of peat moss, vermiculite and perlite, and nutrients were supplied by watering daily with the commonly used Hoagland's plant nutrient solution which contains an array of known plant nutrients and is considered to be appropriate to meet the nutrient needs of plants as they normally receive them from soil.
Average fresh weight of the foliar part of the plants was 115% of that for the control plants.

Chlorella sorokinian = experiment: Growth rate of algae with 2-hydroxy-5-oxoproline in growth medium; assay type: cell-based; details: treated algae, CO2 sole carbon source; untreated approximately 60 h
Experimental: The growth rate of algae, Chlorella sorokinian (obtained from the American Type Culture Collection), was increased when 2-hydroxy-5-oxoproline was added to the growth medium. The mass accumulation growth curve for this single-cell photosynthetic organism is described as a sigmoidal function. […] This reflects substantially accelerated growth for the treated algae cultures when compared with untreated cultures. The growth medium for algae growth is described in Biotechnology & Bioengineering Vol. IV by Daboll et al., pages 281-297 (1962). Carbon dioxide was provided as the sole carbon source and was allowed to sparge into the cultures of both treated and untreated cultures. The light source supplied approximately 980 ft candles. Media pH was initially adjusted to 8.0 using either NaOH or HCl, and subsequently maintained at pH 7.0 by controlling the introduction of CO2.

[4] = test system: oat plants (commercial cultivar Lodi); experiment: Daily root treatment of oats with 2-hydroxy-5-oxoproline; assay type: in vivo
Experimental: (§4) Having generally described the invention, the following EXAMPLES provide additional details of the effects of the metabolite, 2-hydroxy-5-oxoproline and other prolines on plant properties. In the EXAMPLES, the concentration of 2-hydroxy-5-oxoproline in plant leaves was determined by extracting the 2-hydroxy-5-oxoproline into acidified water from a known weight of fresh leaf tissue. The sampled leaves were fully extended and photosynthetically active. The amount of 2-hydroxy-5-oxoproline was measured using a high-performance liquid chromatograph fitted with an optical detector (210 nm) and a column packed with a sulfonated polystyrene di-vinyl benzene polymer suitable for ion-exclusion chromatography of Kreb cycle intermediates. The metabolite was eluted with 0.01N H2SO4 in water. The chromatograph peak corresponding to 2-hydroxy-5-oxoproline was identified by the known column retention time of 2-hydroxy-5-oxoproline. A standard curve was prepared using chemically synthesized 2-hydroxy-5-oxoproline (structure confirmed using 13-C nuclear magnetic resonance) and varying the amount of this standard injected into the system. The area integrated under the peak was correlated with the known amount of standard injected into the chromatograph. The amount of 2-hydroxy-5-oxoproline in leaf tissue samples could then be quantitatively determined from the area under the appropriate peak.
Also in the EXAMPLES, plants were grown at 73° F. with 16 h length days and 8 h length nights. […]
The treatment was commenced when the seedlings were 7 days old and continued for 56 days; the 2-hydroxy-5-oxoproline was supplied daily to their roots as 50 ml of between 0.5 to 50 μM solutions of 2-hydroxy-5-oxoproline in Hoagland's plant nutrient solution having a pH of 6.3. […] When the amount of dry weight was expressed as a function of fresh weight, the percent dry weight of the treated plants ranged from 8.1 to 8.4% when compared with 7.6% for untreated control plants. […]

Cantaloupe-Imperial = experiment: Single foliar treatment of cantaloupe seedlings; assay type: in vivo; details: 16 days old, harvested 9 day after a single treatment, untreated 0.85
Experimental: as §1, §2

Tomato-Halley 3155 = experiment: Multiple foliar treatment of tomato; assay type: in vivo; details: 24 days old, 5 weekly treatments, untreated 11.97
Experimental: as §1
** Plants were 24 days old and treated plants had received 5 weekly treatments.

thrip = experiment: Thrip infestation of alfalfa plants with elevated 2-hydroxy-5-oxoproline; assay type: in vivo; details: of 80 plants, one week after initial exposure; controls 15 of 80
Source text: Thrip infestation of plants having increased 2-hydroxy-5-oxoproline concentration was compared with that of control plants having a normal level of 2-hydroxy-5-oxoproline in their leaves. Control (80 plants) and plants with elevated levels of 2-hydroxy-5-oxoproline (80 plants) were subjected to thrip infestation; these two sets of plants were randomly intermingled in the greenhouse to assure equal exposure to the pest. Of the set of control plants, 15 were infested with thrip while only 11 of the other set of plants were infested with thrip one week after initial exposure to the pests. The light intensity for growth was approximately 1760 microeinsteins per meter squared per second.

glutamine synthetase = experiment: Glutamine synthetase activity in leaf and root of treated oats (transferase assay); assay type: in vivo; details: for GS Activity, Leaf: leaf of treated oats, controls 10.5; for GS Activity, Root: root of treated oats, controls 7.8; for Leaf/Root GS Activity Ratio: treated oats, controls 1.35
Experimental: Glutamine synthetase activity was measured using the transferase assay as described in “Glutamine Synthetase (E. coli)” by B. Shapiro and E. Stadtman, Meth. Enzym. 17A, 910 (1970). The GS activity is expressed in micromoles per gram of fresh weight of tissue per minute.
(§5) TABLE 5 and FIG. 3 hereof show the results of increasing the ratio of leaf/root GS activity on plant growth and on the concentration of 2-hydroxy-5-oxoproline in the leaves of oat plants treated with a compound (tabtoxinine-β-lactam) that binds to glutamine synthetase and impairs the normal destruction of this enzyme, thereby causing the leaf GS activity to increase while the root GS activity decreases. (For methodology, see, e.g., T. Knight, D. Bush, and P. Langston-Unkefer, Plant Physiol. 88, 333 (1988)). The compound (Tabtoxinine-β-lactam) was delivered to the roots. […] The level of 2-hydroxy-5-oxoproline was also observed to increase in the leaves of these plants as a consequence of the increased leaf/root GS activity ratio.

[5] = test system: alfalfa commercial cultivar Saranac; experiment: Daily root treatment of alfalfa: growth, nodulation and flowering; assay type: in vivo
Experimental: as §3
Growth and nodulation were improved by the treatment. The alfalfa commercial cultivar Saranac, was grown as described hereinabove using 1760 microeinsteins per meter squared per second as the light intensity, and watered daily with quarter-strength Hoagland's plant nutrient solution that had been modified to replace the nitrogen (nitrate) with chloride in the solution. Nodulating alfalfa seedlings were treated beginning at about 4 days of age, with the same quantity of 2-hydroxy-5-oxoproline as described in EXAMPLE 1 for plants receiving the 2-hydroxy-5-oxoproline through their roots.
The time to flowering or emergence of seed structures of treated daily and untreated plants was tracked in alfalfa and oats.

lettuce = experiment: Weekly foliar treatment of lettuce with 2-hydroxy-5-oxoproline; assay type: in vivo
Experimental: as §4, §3
The fresh weight, dry weight, percent dry weight, 2-hydroxy-5-oxoproline concentration in the leaves, and the CO2 fixation rates are all increased in the treated plants. The greater dry weight percent increases the value of these plants and that of algae as fuel because the increase provides a greater amount of combustible material per gram of fresh weight (that is, a greater amount of carbon was fixed by the plant), and because an increase in dry weight percent reduces the water content in the fuel which is an energy cost when the fuel is combusted. It also increases the value of these plants as sources of biomass suitable for conversion to other products such as chemicals, liquid fuels, or hydrogen, to name a few examples. Treatments were applied weekly to the foliar parts of the plants using an air brush until approximately 20% drip. The aqueous treatment solution contained 2-hydroxy-5-oxoproline (10 mg/liter) in 0.07% sodium laurel sulfate, and 1.2% glycerol at a pH of 6.3. The plants were harvested at 63 days of age after 7 treatments; the harvest was made 7 days after the last treatment. These plants were provided Hoagland's plant nutrient solution to their roots and grown under light intensity of […] microeinsteins.
At harvest (63 days of age) none of the 12 control plants had emerged flowering structures, whereas 6 of the 12 treated plants had well-developed flowering structures.

oat plants [6] = experiment: Root treatment of oats; effects of increasing leaf/root GS ratio on growth and leaf 2-hydroxy-5-oxoproline; assay type: in vivo; details: for Whole Plant Fresh Weight (FWT): oats, compound delivered to the roots, controls 14.95; for 2-Hydroxy-5-oxoproline in Leaf: treated oats, controls 4.9
Experimental: as §4, §3, §5

[7] = individual treated oat plants, non-responders
[8] = alfalfa, daily root treatment (soil), controls 100
[9] = lettuce, harvest at 63 days, control 100%

## O=C1CCC(C(=O)O)N1 (centres unmarked) [5-oxoproline, 2-pyrrolidone-5-carboxylic acid]
Oat plants [1]
  fresh foliar weight, percent of untreated control plants: 126%

## O=C1CC[C@@](O)(C(=O)O)N1 [2-hydroxy-5-oxoproline]
[2]; average of non-responders, average of untreated plants 13.7
  Number of Tillers in Mature Plant: 14.0
[2]; average of non-responders, average of untreated plants 18.2
  CO2 fixation Rate as Differential CO2 Concentration: 18.2 ppm
[2]; average of responders, average of untreated plants 13.7
  Number of Tillers in Mature Plant: 17.0
[2]; average of responders, average of untreated plants 18.2
  CO2 fixation Rate as Differential CO2 Concentration: 25.3 ppm
[2]; [7]
  CO2 fixation Rate as Differential CO2 Concentration: 19.9 ppm and 19.6 ppm and 17.2 ppm and 16.1 ppm
  Number of Tillers in Mature Plant: 14 (2×) and 13 and 15
[2]; individual treated oat plants, responders
  Number of Tillers in Mature Plant: 21 (2×) and 19 and 12 and 15 and 17 (3×) and 13 and 18
[2]; individual treated oat plants, responders, light 2000 microeinsteins
  CO2 fixation Rate as Differential CO2 Concentration: 25.2 ppm and 24.5 ppm and 24.2 ppm (2×) and 23.6 ppm and 23.2 ppm and 28.9 ppm and 28.0 ppm and 25.9 ppm and 25.3 ppm
Cotton-Pima
  Foliar Fresh Weight, Treated plants: 1.85* g
[3]; switchgrass, daily root treatment
  Average fresh weight of the foliar part, percent of control plants: 115%
[3]; treated switchgrass, untreated 14.9%
  dry weight per unit of fresh weight, foliar parts: 16.5%
[3]; treated switchgrass, untreated 16.7%
  dry weight per unit of fresh weight, roots: 12.05%
[3]; treated versus control switchgrass, as a function of time
  emergence of 3rd and 4th leaves (FIG. 4): consistently emerged leaves sooner than did the control plants
Chlorella sorokinian
  time to reach the mid-log phase of growth: approximately 40 h
[4]; oats treated daily
  seed structures displayed earlier than untreated control plants: 3 to 5 days
[4]; oats, daily root treatment, control 4.9
  2-Hydroxy-5-oxoproline Concentration in Leaf: 7.0 micromoles/gFWT
[4]; oats, roots treated daily for 56 days with 50 ml of 0.5 to 50 μM solution, control 14.95
  Whole Plant Fresh Weight (FWT): 18.06 g
Cantaloupe-Imperial
  Foliar Fresh Weight, Treated plants: 1.55* g
Tomato-Halley 3155
  Foliar Fresh Weight, Treated plants: 19.08** g
thrip
  number of plants infested with thrip: 11
Glutamine synthetase
  GS Activity, Leaf: Leaf: 16.9 micromoles/g FWT/min
  GS Activity, Root: Root: 6.4 micromoles/g FWT/min
  Leaf/Root GS Activity Ratio: 2.64
[5]; alfalfa treated daily
  flowered sooner than untreated plants: 2 to 5 days
[5]; [8]
  Nodule number/plant (%): 214%
  Nodule weight/plant (%): 165%
  Whole plant Fresh weight (%): 145%
lettuce; 34 day-old lettuce plants, control 6.6
  CO2 Fixation Rate: 9.0 micromoles CO2 fixed/m^2/sec
lettuce; 57 day-old lettuce plants, control 6.9
  CO2 Fixation Rate: 9.6 micromoles CO2 fixed/m^2/sec
lettuce; lettuce, 7 weekly foliar treatments 10 mg/liter, harvest at 63 days, control 55.3
  Whole Plant Fresh Weight (FWT): 65.2 g
lettuce; lettuce, harvest at 63 days, control 4.00
  Whole Plant Dry Weight (DW): 6.35 g
lettuce; [9]
  Whole Plant Dry Weight, percent of control: 159%
  Whole Plant Fresh Weight, percent of control: 118%
lettuce; lettuce, weekly foliar treatment, control 6.25
  2-Hydroxy-5-oxoproline Concentration in Leaf: 13.37 micromoles/gFWT
lettuce; lettuce, control 100%
  2-Hydroxy-5-oxoproline Concentration in Leaf, percent of control: 212%
lettuce; of the 12 treated lettuce plants at harvest (63 days of age), none of 12 controls
  number of plants with well-developed flowering structures: 6
Oat plants [6]
  Whole Plant Fresh Weight (FWT): 18.07 g
  2-Hydroxy-5-oxoproline in Leaf: 7.04 micromoles/g FWT

## N[C@@H](CC[C@]1(O)CNC1=O)C(=O)O [Tabtoxinine-β-lactam, tabtoxinine-β-lactam, reference compound]
Glutamine synthetase
  GS Activity, Leaf: Leaf: 25.9 micromoles/g FWT/min
  GS Activity, Root: Root: 3.9 micromoles/g FWT/min
  Leaf/Root GS Activity Ratio: 6.6
Oat plants [6]
  Whole Plant Fresh Weight (FWT): 24.6 g
  2-Hydroxy-5-oxoproline in Leaf: 16.6 micromoles/g FWT
